Measurements taken from patent publication US7186710B2, “Phthalazinones” (Altana Pharma AG, priority 2001, dated 2007).

Assays:
PDE7A1 = target: T1, PDE7A1 (Homo sapiens, UniProt Q13946); assay: Inhibition of PDE7 activity, [3H]cAMP SPA enzyme assay with recombinant PDE7A1; type: biochemical; settings: recombinant PDE7A1 from SF21 insect cells, 0.5 μM cAMP; for IC50: read-out: PDE7 −logIC50 (converted)
T1 construct: made in house; host or cells: SF21 insect cells (baculovirus, pCRBac)
Description: (§1) Method for Measuring Inhibition of PDE4 and PDE7 Activities
(§2) The cDNA for PDE7A1 (Genebank Acc. No. L12052) was isolated, using RT-PCR, from total cellular RNA derived from the T cell line CCRF-CEM and cloned into the cloning vector pCR2.1 (invitrogen, Groningen, NL) under standard conditions (the manufacturer's instructions). For expression in insect cells, the cDNA was subcloned into the baculo expression vector pCRBac (invitrogen, Groningen, NL). The cDNA for PDE4D3 was a gift of Marco Conti (Stanford University, USA). The ORF (Genebank Acc. No. U50159) was cut from the original pCMV5 vector with the restriction enzymes EcoRI and XbaI and subcloned in the expression vector pBacPak9 (Clontech, Palo Alto).
(§3) The recombinant baculoylrus was prepared by means of homologous recombination in SF9 insect cells. The expression plasmids were cotransfected with Bac-N-Blue (invitrogen, Groningen, NL) or Baculo-Gold DNA (Pharmingen, Hamburg) using a standard protocol (Pharmingen, Hamburg). Wt virus-free recombinant virus supernatants were selected using plaque assay methods. After that, high-titre virus supernatants were prepared by amplifying 3 times. PDEs were expressed in SF21 cells by infecting 2×10^6 cells/ml with an MOI (multiplicity of infection) between 2 and 5 in serum-free SF900 medium (Life Technologies, Paisley, UK). The cells were cultured at 28° C. for 48 hours, after which they were pelleted for 5–10 min at 1000 g and 4° C. In the case of PDE7A1 cells were cultured in spinner flasks at a rotational speed of 75 rpm.
(§4) The SF21 insect cells were resuspended, at a concentration of approx. 10^7 cells/ml, in ice-cold (4° C.) homogenization buffer (20 mM Tris, pH 8.2, containing the following additions: 140 mM NaCl, 3.8 mM KCl, 1 mM EGTA, 1 mM MgCl2, 1 mM β-mercaptoethanol, 2 mM benzamidine, 0.4 mM Pefablock, 10 μM leupeptin, 10 μM pepstatin A, 5 μM trypsin inhibitor) and disrupted by ultrasonication. The homogenate was then centrifuged for 10 min at 1000×g and the supernatant was stored at −80° C. until subsequent use (see below). The protein content was determined by the Bradford method (BioRad, Munich) using BSA as the standard.
(§5) PDE7A1 and PDE4D3 activities were inhibited by the said compounds in a modified SPA (scintillation proximity assay) test, supplied by Amersham Pharmacia Biotech (see procedural instructions “phosphodiesterase [3H]cAMP SPA enzyme assay, code TRKQ 7090”), carried out in 96-well microtitre plates (MTP's). The test volume is 100 μl and contains 20 mM Tris buffer (pH 7.4), 0.1 mg of BSA (bovine serum albumin)/ml, 5 mM Mg^2+, 0.5 μM cAMP (including about 50,000 cpm of [3H]cAMP), 2 μl of the respective substance dilution in DMSO and sufficient recombinant PDE (1000×g supernatant, see above) to ensure that 15–20% of the cAMP is converted under the said experimental conditions. After a preincubation of 5 min at 37° C., the reaction is started by adding the substrate (cAMP) and the assays are incubated for a further 15 min; after that, they are stopped by adding SPA beads (50 μl). In accordance with the manufacturer's instructions, the SPA beads had preylously been resuspended in water and then diluted 1:3 (v/v); the diluted solution also contains 3 mM IBMX. After the beads have been sedimented (>30 min), the MTP's are analyzed in commercially available measuring appliances and the corresponding IC50 values of the compounds for the inhibition of PDE activities are determined from the concentration-effect curves by means of non-linear regression.

PDE4D3 = target: T2, PDE4D3 (Homo sapiens, UniProt Q08499); assay: Inhibition of PDE4 activity, [3H]cAMP SPA enzyme assay with recombinant PDE4D3; type: biochemical; settings: recombinant PDE4D3 from SF21 insect cells, 0.5 μM cAMP; for IC50: read-out: PDE4 −logIC50 (converted)
T2 construct: made in house; host or cells: SF21 insect cells (baculovirus, pBacPak9)
Description: as §1, §2, §3, §4, §5

T2 sequence (Q08499 1-673 isoform Q08499-2): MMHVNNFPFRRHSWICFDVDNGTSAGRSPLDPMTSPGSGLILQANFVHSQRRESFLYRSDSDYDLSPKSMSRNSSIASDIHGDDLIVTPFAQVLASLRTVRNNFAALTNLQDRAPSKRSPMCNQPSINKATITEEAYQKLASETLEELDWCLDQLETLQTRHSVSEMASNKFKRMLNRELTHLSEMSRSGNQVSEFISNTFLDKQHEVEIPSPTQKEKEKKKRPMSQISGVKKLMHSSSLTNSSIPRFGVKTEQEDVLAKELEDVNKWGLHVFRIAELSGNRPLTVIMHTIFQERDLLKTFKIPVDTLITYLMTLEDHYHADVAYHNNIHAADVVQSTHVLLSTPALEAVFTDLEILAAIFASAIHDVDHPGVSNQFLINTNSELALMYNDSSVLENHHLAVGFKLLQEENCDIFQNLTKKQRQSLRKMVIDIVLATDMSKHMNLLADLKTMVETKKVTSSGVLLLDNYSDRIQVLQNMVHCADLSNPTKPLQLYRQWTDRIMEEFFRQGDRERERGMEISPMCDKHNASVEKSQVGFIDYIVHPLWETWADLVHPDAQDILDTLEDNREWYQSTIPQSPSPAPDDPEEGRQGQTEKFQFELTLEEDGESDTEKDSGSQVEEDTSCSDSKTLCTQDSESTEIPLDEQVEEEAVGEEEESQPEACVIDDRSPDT
T1 sequence (Q13946 whole entry): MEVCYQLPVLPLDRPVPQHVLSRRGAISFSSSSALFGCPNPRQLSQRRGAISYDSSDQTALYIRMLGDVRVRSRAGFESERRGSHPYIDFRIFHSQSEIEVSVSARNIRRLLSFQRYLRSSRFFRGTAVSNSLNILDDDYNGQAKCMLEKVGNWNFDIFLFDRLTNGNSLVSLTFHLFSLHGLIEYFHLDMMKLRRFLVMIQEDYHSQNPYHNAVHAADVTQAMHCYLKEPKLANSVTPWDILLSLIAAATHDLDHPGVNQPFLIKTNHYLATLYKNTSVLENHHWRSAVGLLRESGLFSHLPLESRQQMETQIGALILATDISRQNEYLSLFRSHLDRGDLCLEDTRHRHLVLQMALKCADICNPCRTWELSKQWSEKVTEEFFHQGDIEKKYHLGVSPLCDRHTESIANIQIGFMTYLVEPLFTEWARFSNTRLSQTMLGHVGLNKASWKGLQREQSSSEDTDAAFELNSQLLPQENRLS

For COc1ccc(C2=NN(c3nc(C)ccc3C(F)(F)F)C(=O)[C@H]3CC=CC[C@@H]23)cc1Cl (relative stereo) [Compound 6], the “PDE7 −logIC50 (mol/l)” value (PDE7A1) was 7.08 and the “PDE4 −logIC50 (mol/l)” value (PDE4D3) was 7.64.
For COc1ccc(C2=NN(c3ccc(C(=O)O)cc3)C(=O)[C@H]3CC=CC[C@@H]23)cc1F (relative stereo) [Compound 13, (cis)-4-[4-(3-Fluoro-4-methoxy-phenyl)-1-oxo-4a,5,8,8a-tetrahydro-1H-phthalazin-2-yl]-benzoic acid], the IC50 (PDE7A1) was 380 nM, the IC50 (PDE4D3) was 45.7 nM and the melting point was 201 to 203 °C.
With COc1ccc(C2=NN(C3CCN(C(=O)N4CCNC4=O)CC3)C(=O)[C@H]3CC=CC[C@@H]23)cc1Cl (relative stereo) [Compound 22, cis-4-(3-Chloro-4-methoxy-phenyl)-2-{1-[1-(2-oxo-imidazolidin-1-yl)-methanoyl]-piperidin-4-yl}-4a,5,8,8a-tetrahydro-2H-phthalazin-1-one] the melting point was 216 to 218 °C.
Compound COc1ccc(C2=NN(C3CCN(C(=O)N4CCOCC4)CC3)C(=O)[C@H]3CC=CC[C@@H]23)cc1Cl (relative stereo) [Compound 1, (cis)-4-(3-Chloro-4-methoxy-phenyl)-2-[1-(1-morpholin-4-yl-methanoyl)-piperidin-4-yl]-4a,5,8,8a-tetrahydro-2H-phthalazin-1-one] has an IC50 (PDE7A1) of 22.9 nM and an IC50 (PDE4D3) of 2.29 nM.
Compound COc1ccc(C2=NN(c3ccc4ncsc4c3)C(=O)[C@@H]3CC=CC[C@H]23)cc1Cl (relative stereo) [Compound 7, (cis)-2-Benzothiazol-6-yl-4-(3-chloro-4-methoxy-phenyl)-4a,8,8a-tetrahydro-2H-phthalazin-1-one] has an IC50 (PDE7A1) of 105 nM, an IC50 (PDE4D3) of 8.13 nM and a melting point of 156 to 157 °C.
In the case of COc1ccc(C2=NN(C3CCN(C(C)=O)CC3)C(=O)[C@@H]3CC=CC[C@H]23)cc1Cl (relative stereo) [Compound 3, (cis)-2-(1-Acetyl-piperidin-4-yl)-4-(3-chloro-4-methoxy-phenyl)-4a,5.8,8a-tetrahydro-2H-phthalazin-1-one], the IC50 (PDE7A1) is reported as 182 nM, the IC50 (PDE4D3) is reported as 5.62 nM and the melting point is reported as 206 to 208 °C.
For COc1ccc(C2=NN(C3CCN(Cc4ccncc4)CC3)C(=O)[C@H]3CC=CC[C@@H]23)cc1Cl.Cl (relative stereo) [Compound 4, (cis)-4-(3-Chloro-4-methoxy-phenyl)-2-(1-pyridin-4-ylmethyl-piperidin-4-yl)-4a,5,8,8a-tetrahydro-2H-phthalazin-1-one hydrochloride], the IC50 (PDE7A1) was 41.7 nM, the IC50 (PDE4D3) was 2.45 nM and the melting point was 244 °C (dec.).
For COc1ccc(C2=NN(c3ccc(C(=O)N4CCN(CCN(C)C)CC4)cc3)C(=O)[C@H]3CC=CC[C@@H]23)cc1Cl.Cl.Cl (relative stereo) [Compound 5, (cis)-4-(3-Chloro-4-methoxy-phenyl)-2-(4-{1-[4-(2-dimethylamino-ethyl)-piperazin-1-yl]-methanoyl}-phenyl)-4a,5,8,8a-tetrahydro-2H-phthalazin-1-one dihydrochloride], the IC50 (PDE7A1) was 66.1 nM, the IC50 (PDE4D3) was 13.8 nM and the melting point was 198 to 201 °C.
In the case of COc1ccc(C2=NN(c3nc(-c4cccs4)ns3)C(=O)[C@H]3CC=CC[C@@H]23)cc1Cl (relative stereo) [Compound 18, (cis)-4-(3-Chloro-4-methoxy-phenyl)-2-(3-thiophen-2-yl-[1,2,4]thiadiazol-5-yl)-4a,5,8,8a-tetrahydro-2H-phthalazin-1-one], the IC50 (PDE7A1) is reported as 77.6 nM and the IC50 (PDE4D3) is reported as 23.4 nM.
Work on COc1ccc(C2=NN(C3CCN(S(=O)(=O)c4ccc(C)cc4)CC3)C(=O)[C@H]3CC=CC[C@@H]23)cc1Cl (relative stereo) [Compound 2, (cis)-4-(3-Chloro-4-methoxy-phenyl)-2-[1-(toluene-4-sulfonyl)-piperidin-4-yl]-4a,5,8,8a-tetrahydro-2H-phthalazin-1-one] yielded an IC50 (PDE7A1) of 107 nM, an IC50 (PDE4D3) of 3.98 nM and a melting point of 198 to 199 °C.
For COc1ccc(C2=NN(c3ccc(C(=O)O)cc3)C(=O)[C@H]3CC=CC[C@@H]23)cc1Cl (relative stereo) [Compound 14, (cis)-4-{4-(3-chloro-4-methoxyphenyl)-1-oxo-4a,5,8,8a-tetrahydro-1H-phthalazin-2-yl}-benzoic acid], the melting point was 222 to 224 °C.
COc1ccc(C2=NN(c3ccc4c(c3)COC4=O)C(=O)[C@H]3CC=CC[C@@H]23)cc1Cl (relative stereo) [Compound 8, (cis)-4-(3-Chloro-4-methoxy-phenyl)-2-(1-oxo-1,3-dihydro-isobenzofuran-5-yl)-4a,5,8,8a-tetrahydro-2H-phthalazin-1-one] showed an IC50 (PDE7A1) of 89.1 nM, an IC50 (PDE4D3) of 8.91 nM and a melting point of 212 to 213 °C.
COc1ccc(C2=NN(c3ccc4[nH]ncc4c3)C(=O)[C@H]3CC=CC[C@@H]23)cc1Cl.Cl (relative stereo) [Compound 9, (cis)-4-(3-Chloro-4-methoxy-phenyl)-2-(1H-indazol-5-yl)-4a,5,8,8a-tetrahydro-2H-phthalazin-1-one hydrochloride] gave an IC50 (PDE7A1) of 28.8 nM, an IC50 (PDE4D3) of 2.57 nM and a melting point of 196 to 197 °C.
Compound COc1ccc(C2=NN(C3CCCC3)C(=O)[C@H]3CC=CC[C@@H]23)cc1Cl (relative stereo) [Compound 10, (cis)-4-(3Chloro-4-methoxy-phenyl)-2-cyclopentyl-4a,5,8,8a-tetrahydro-2H-phthalazin-1-one] has an IC50 (PDE7A1) of 18.6 nM and an IC50 (PDE4D3) of 0.776 nM.
Work on COc1ccc(C2=NN(CCCCn3ccnc3)C(=O)[C@H]3CC=CC[C@@H]23)cc1Cl.Cl (relative stereo) [Compound 11, (cis)-4-(3-Chloro-4-methoxy-phenyl)-2-(4-imidazol-1-yl-butyl)-4a,5,8,8a-tetrahydro-2H-phthalazin-1-one hydrochloride] yielded an IC50 (PDE7A1) of 269 nM, an IC50 (PDE4D3) of 0.891 nM and a melting point of 217 to 219 °C.
In the case of COc1ccc(C2=NN(CCCCOc3ccc(C(=O)O)cc3)C(=O)[C@H]3CC=CC[C@@H]23)cc1Cl (relative stereo) [Compound 12, (cis)-4-{4-[4-(3-Chloro-4-methoxy-phenyl)-1-oxo-4a,5,8,8a-tetrahydro-1H-phthalazin-2-yl]-butoxy}benzoic acid], the IC50 (PDE7A1) is reported as 97.7 nM, the IC50 (PDE4D3) is reported as 6.46 nM and the melting point is reported as 169 to 171 °C.
With COc1ccc(C2=NN(c3cc(C)c4c(C)nn(C)c4n3)C(=O)[C@H]3CC=CC[C@@H]23)cc1Cl (relative stereo) [Compound 17, (cis)-4-(3-Chloro-4-methoxy-phenyl)-2-(1,3,4-trimethyl-1H-pyrazolo[3,4-b]pyridin-6-yl)-4a,5,8,8a-tetrahydro-2H-phthalazin-1-one] the IC50 (PDE7A1) was 41.7 nM and the IC50 (PDE4D3) was 21.9 nM.
